Data: patent US9695133B2, “Quinazolinone-based oncogenic-RAS-selective lethal compounds and their use” (THE TRUSTEES OF COLUMBIA UNIVERSITY IN THE CITY OF NEW YORK, priority 2012, dated 2017)
Where two headings read alike, the source gives them in different places.

Columns and labels:
[1] = Water solubility by microplate nephelometer; assay type: physicochemical
Protocol: The water solubility was determined using a microplate nephelometer (NEPHELOstar, BMG labtech, Cary, N.C.).

[2] = Mouse liver microsome metabolic stability test; assay type: in vitro ADME; details: mouse liver microsome assay

| SMILES | solubility ([1]; water, nephelometry) | metabolic stability [2] | solubility [1] |
| --- | --- | --- | --- |
| CC(C)Oc1ccc(CN2CCNCC2)cc1-n1c(CN2CCN(C(=O)COc3ccc(Cl)cc3)CC2)nc2ccccc2c1=O [PE, 2-((4-(2-(4-chlorophenoxy)ethanoyl)piperazin-1-yl)methyl)-3-(2-isopropoxy-5-(piperazin-1-ylmethyl)phenyl)quinazolin-4(3H)-one] | improved solubility | improved metabolic stability in comparison to erastin | – |
| CCOc1ccccc1-n1c(C(C)N2CCN(C(=O)COc3ccc(Cl)cc3)CC2)nc2ccccc2c1=O (stereo not shown) [erastin] | – | metabolic instability | poor solubility |
